# Source: PMC10635799, “Analogs of FTY720 inhibit TRPM7 but not S1PRs and exert multimodal anti-inflammatory effects” (The Journal of General Physiology, 2023)
# “Also recorded” adds a separate entry of the source. Read-outs that look alike come from different tables or passages of the source.
# Experiments:
# lymphocytes = tested on: lymphocytes; parameters: method as in Brinkmann et al., 2002; Zhu et al., 2007; details: ref Brinkmann et al., 2002; Zhu et al., 2007; cited from earlier work
# S1P receptors = details: cited from earlier work; for Effect on S1PRs: non-phosphorylated form, ref Qin et al., 2013
# HeLa cells = experiment: LDH-release cytotoxicity assay; type: cell-based; details: 24 h
# Protocol: WT HeLa cells were plated at a density of 10,000 cells per well into a 96-well tissue culture microplate (3610; Costar). AAL-149, VPC01091.4, or vehicle at 0.1, 1, 5, 10, and 25 μM was added to cells with media for a final volume of 100 μl and incubated for 24 h. LDH release was quantified using a CyQUANT LDH Cytotoxicity Assay (C20300; Thermo Fisher Scientific) and a FlexStation 3 plate reader using SoftMax […] (Molecular Devices).
# BMDMs = experiment: LPS-induced inflammation assay in WT and TRPM7 KO BMDMs (qRT-PCR); type: cell-based, mice; details: 10 µM VPC4, 10 µM AAL-149, 5 µM FTY720, 30 μM NS8593
# Protocol: All cells were cultured at 37°C with 5% CO2. HEK 293T cells (CRL-3216; ATCC), HeLa cells (CCL-2; ATCC), RAW 264.7 macrophages (TIB-71; ATCC), and BV-2 microglial cells (ABC-TC212S; AcceGen Biotech) were cultured in DMEM (11995065; Gibco) with 10% fetal bovine serum (FBS; Avantor Seradigm Premium Grade Fetal Bovine Serum 97068-085). FBS was heat-inactivated prior to use at 56°C for 30 min. BMDMs were isolated and cultured as previously described ([Schappe et al., 2018]) and differentiated into mature macrophages over 7 d through culture in BMDM media (RPMI 1640, 10% FBS, and 20% L-929 culture supernatant; Gibco).
# (§1) RAW 264.7 macrophages or BMDMs were seeded at a density of 250,000 cells per well into a 12-well tissue culture plate in 1 ml of media and left to incubate overnight. The indicated drug or vehicle control was added to each well, and the plate was agitated and left to incubate for 10 min. The cells were then treated with LPS (1 µg/ml) or an equivalent volume of PBS, agitated, and left to incubate for 3 h. Cells were washed with PBS and then RNA isolation was performed using RNeasy Plus Micro Kit (74134; Qiagen). cDNA was produced using GoScript Reverse Transcriptase (A5004; Promega) and a quantitative PCR was performed using SensiFast SYBR (98020; Bioline) and Bio-Rad CFX Connect thermocycler. Each datum represents an individual, biological replicate that is the mean of duplicate technical replicates. Fold-changes are all reported relative to untreated controls for each experiment and were calculated using the ∆∆Ct method, with β2-microglobulin used as the housekeeping gene for each sample. The experiment was performed similarly with BV-2 microglia and alveolar macrophages, except that cells were plated at a density of 100,000 cells per well into a 24-well tissue culture plate with 1 ml of media per well.
# mouse TRPM7 = molecular target: T1, mouse TRPM7 (Mus musculus, UniProt Q923J1); experiment: Whole-cell patch clamp of TRPM7 current (IM7) in HEK 293T cells overexpressing mouse TRPM7; type: cell-based
# T1 construct: expressed in transfected cells; host or cells: HEK 293T cells (CRL-3216; ATCC), transient transfection with jetOPTIMUS, co-transfected eGFP as a separate plasmid
# Protocol: To overexpress TRPM7, HEK 293T cells were plated at a density of 500,000 cells per well (day 0), transfected at 80–90% confluency (day 1), and were patched 24–36 h after transfection (day 2). TRPM7 overexpression was performed using WT mouse TRPM7 (2.5 µg plasmid DNA; [Desai et al., 2012]) and jetOPTIMUS DNA Transfection Reagent (101000006; Polyplus). To enhance the selection rate of TRPM7-overexpressing cells, eGFP (#22152; Addgene) was included at a 1:10 dilution (0.25 µg) and only GFP-positive cells were patched.
# Whole-cell patch clamp electrophysiology was performed as described previously ([Schappe et al., 2022]). Briefly, the external solution contained (in mM) 140 Na-methanesulfonate, 5 Cs-gluconate, 2.5 CaCl2, and 10 HEPES, pH 7.4 (adjusted with NaOH), at an osmolality of 280–290 mOsm/kg. The internal pipette solution contained (in mM) 115 Cs-gluconate, 3 NaCl, 0.75 CaCl2, 10 HEPES, 10 HEDTA, 1.8 Cs4-BAPTA, and 2 Na2ATP, pH 7.3 (adjusted with CsOH), at an osmolality of 273 mOsm/kg. Intracellular free [Ca^2+] was estimated to be ∼100 nM using the online WEBMAXC standard calculator at https://somapp.ucdmc.ucdavis.edu/pharmacology/bers/maxchelator/webmaxc/webmaxcS.htm ([Bers et al., 2010]). Recordings were captured in pCLAMP 9 (Molecular Devices) using a 400-ms ramp protocol from −100 to +100 mV and a holding potential of 0 mV. Sampling was performed at 10 kHz with a 5 kHz low-pass band filter using an Axopatch 200B amplifier (Molecular Devices). All electrophysiology experiments were conducted at RT (∼23°C). […] Similarly, the minimum current for each inhibitor dose is taken as the stable minimum current observed after the drug has had time to exert an effect and after the flow-driven transient increase has subsided.
# Data were analyzed using Microsoft Excel, Prism 9.5 (GraphPad Software), and Origin Pro 7.5 (OriginLab). Chemical structures were created using ChemDraw Professional 20.1.1 (PerkinElmer). Electrophysiology traces were plotted using Origin Pro 7.5, and the remaining data were plotted and statistically tested using Prism. Outliers were determined using the robust regression and outlier removal (ROUT) function within Prism. IC50 values were determined by plotting the percentage of maximum current observed as a function of applied drug concentration. A non-linear regression was fit using a standard Hill slope of −1.0 and the model: Y=100/[1+([Inhibitor]/IC50)]. Where appropriate, data are presented as individual values; otherwise the sample sizes and precision measures are indicated in the figure legends. P values of <0.05 were considered statistically significant.
# RAW 264.7 macrophages = experiment: LPS-induced inflammatory gene expression (qRT-PCR) in RAW 264.7 macrophages; type: cell-based; details: LPS 1 µg/ml for 3 h
# Protocol: as §1, with “μg/ml)” for “µg/ml)”, “([…];” for “(A5004;”, “ΔΔCt” for “∆∆Ct”
# TRPM7 = details: cited from earlier work; for IC50: read-out: IC50 for TRPM7 inhibition
# [1] = tested on: small-conductance Ca^2+-activated K^+ (SK) channels; parameters: method as in Diness et al., 2010; details: ref Diness et al., 2010; read-out: IC50 on SK-family channels; cited from earlier work
# [2] = non-phosphorylated form, ref Qin et al., 2013
# T1 sequence (Q923J1 whole entry): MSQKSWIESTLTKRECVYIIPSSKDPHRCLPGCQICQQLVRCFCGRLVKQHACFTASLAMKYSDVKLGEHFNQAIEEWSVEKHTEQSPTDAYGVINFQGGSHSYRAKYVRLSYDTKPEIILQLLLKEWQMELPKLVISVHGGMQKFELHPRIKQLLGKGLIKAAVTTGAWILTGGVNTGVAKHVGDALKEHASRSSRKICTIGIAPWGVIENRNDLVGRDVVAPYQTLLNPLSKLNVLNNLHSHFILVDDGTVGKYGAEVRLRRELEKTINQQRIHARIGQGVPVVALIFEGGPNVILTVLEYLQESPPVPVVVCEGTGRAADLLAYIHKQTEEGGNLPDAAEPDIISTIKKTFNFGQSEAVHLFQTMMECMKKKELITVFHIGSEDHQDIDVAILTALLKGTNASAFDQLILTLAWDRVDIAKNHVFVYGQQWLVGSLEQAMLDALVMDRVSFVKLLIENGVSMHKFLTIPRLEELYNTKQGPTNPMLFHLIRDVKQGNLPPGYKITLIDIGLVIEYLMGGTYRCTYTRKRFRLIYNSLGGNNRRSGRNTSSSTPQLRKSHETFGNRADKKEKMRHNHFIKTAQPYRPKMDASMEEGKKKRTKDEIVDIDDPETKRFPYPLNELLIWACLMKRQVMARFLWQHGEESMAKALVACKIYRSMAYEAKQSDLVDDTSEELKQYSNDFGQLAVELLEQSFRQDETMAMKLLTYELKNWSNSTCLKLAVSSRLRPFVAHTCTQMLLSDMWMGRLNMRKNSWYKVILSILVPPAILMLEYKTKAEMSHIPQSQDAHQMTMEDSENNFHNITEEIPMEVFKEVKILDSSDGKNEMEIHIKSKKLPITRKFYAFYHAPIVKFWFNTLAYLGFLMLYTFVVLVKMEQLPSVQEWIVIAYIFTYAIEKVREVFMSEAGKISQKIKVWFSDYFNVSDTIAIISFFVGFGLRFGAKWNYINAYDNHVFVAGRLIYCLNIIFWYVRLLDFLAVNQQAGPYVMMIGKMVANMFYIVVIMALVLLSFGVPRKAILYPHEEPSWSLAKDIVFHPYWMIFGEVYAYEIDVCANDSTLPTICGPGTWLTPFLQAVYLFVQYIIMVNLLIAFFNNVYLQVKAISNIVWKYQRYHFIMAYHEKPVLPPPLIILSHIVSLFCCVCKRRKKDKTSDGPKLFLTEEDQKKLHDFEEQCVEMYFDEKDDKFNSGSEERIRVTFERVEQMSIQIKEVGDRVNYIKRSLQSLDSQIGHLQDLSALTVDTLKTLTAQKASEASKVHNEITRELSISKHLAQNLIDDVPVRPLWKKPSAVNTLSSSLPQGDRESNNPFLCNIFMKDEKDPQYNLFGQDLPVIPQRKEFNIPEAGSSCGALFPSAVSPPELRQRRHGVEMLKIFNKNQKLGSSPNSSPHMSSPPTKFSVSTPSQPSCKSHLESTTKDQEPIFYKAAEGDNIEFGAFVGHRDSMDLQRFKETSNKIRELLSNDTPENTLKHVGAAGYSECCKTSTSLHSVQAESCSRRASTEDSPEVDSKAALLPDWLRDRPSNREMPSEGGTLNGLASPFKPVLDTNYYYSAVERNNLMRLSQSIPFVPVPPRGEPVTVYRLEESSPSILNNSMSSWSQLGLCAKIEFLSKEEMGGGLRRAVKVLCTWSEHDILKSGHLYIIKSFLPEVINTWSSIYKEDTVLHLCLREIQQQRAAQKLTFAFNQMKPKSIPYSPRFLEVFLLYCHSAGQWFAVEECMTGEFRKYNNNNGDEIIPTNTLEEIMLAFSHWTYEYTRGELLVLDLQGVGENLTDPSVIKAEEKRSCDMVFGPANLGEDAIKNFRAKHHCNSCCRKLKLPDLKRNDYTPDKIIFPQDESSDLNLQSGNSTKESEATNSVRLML
compound,measurement,setting,value
"CCCCCCCOc1ccc(CC[C@](C)(N)CO)cc1 [AAL-149, (2S)-2-amino-4-(4-heptoxyphenyl)-2-methylbutan-1-ol]",Lymphopenia when administered to mice,lymphocytes,do not evoke lymphopenia
same,Activity at S1P receptors,"S1P receptors; ref Brinkmann et al., 2002, Zhu et al., 2007",not active
same,Cytotoxicity (LDH release),HeLa cells; dosages up to 10 µM,did not result in any significant cytotoxicity
same,Mean cytotoxicity (LDH release),HeLa cells; each dose up to 25 µM,< 5%
same,LPS-induced IL-1β expression in TRPM7 KO BMDMs,BMDMs,able to suppress
same,IC50,mouse TRPM7,1080 nM
same,LPS-stimulated IL-1β gene expression,RAW 264.7 macrophages; 10 µM pretreatment,completely abrogated
"CCCCCCCCc1ccc(CCC(N)(CO)CO)cc1 [FTY720, fingolimod]",Effect on S1PRs,S1P receptors,no effect
same,LPS-induced IL-1β expression in TRPM7 KO BMDMs,BMDMs,able to suppress
same,IC50,TRPM7; [2],720 nM
same,Effect on whole-cell TRPM7 current (IM7),mouse TRPM7; 5 µM,inhibited; also recorded: able to inhibit
"CCCCCCCCCCCCC/C=C/[C@H](O)[C@@H](N)CO [L-threo-sphingosine, L-threo-(2S,3S)-sphingosine, reference compound]",IC50,"mouse TRPM7; peak current at +100 mV, HEK 293T overexpressing mouse TRPM7, Hill slope -1.0, read-out: IC50 for inhibition of TRPM7 current (IM7)",3380 nM
"c1ccc2c(c1)CCC[C@H]2Nc1nc2ccccc2[nH]1 [NS8593, (R)-N-(benzimidazol-2-yl)-1,2,3,4-tetrahydro-1-naphtylamine]",LPS-induced IL-1β expression in TRPM7 KO BMDMs,BMDMs,able to suppress
same,IC50,[1],420 to 730 nM
same,IC50,"TRPM7; ref Chubanov et al., 2012",1600 nM
"CCCCCCCCCCCCC/C=C/[C@@H](O)[C@@H](N)COP(=O)(O)O [S1P, sphingosine-1-phosphate]",Effect of phosphorylated forms on IM7,"TRPM7; ref Qin et al., 2013",do not inhibit
"CCCCCCCCc1ccc([C@H]2CC[C@](N)(CO)C2)cc1 [VPC01091.1, ((1R,3S)-1-amino-3-(4-octylphenyl)cyclopentyl)methanol]",Effect on whole-cell TRPM7 current (IM7),mouse TRPM7; 10 µM,inhibited
"CCCCCCCCc1ccc([C@H]2CC[C@@](N)(COP(=O)(O)O)C2)cc1 [VPC01091.2-P, ((1S,3S)-1-amino-3-(4-octylphenyl)cyclopentyl)methyl dihydrogen phosphate]",Effect on whole-cell TRPM7 current (IM7),mouse TRPM7; 10 µM,negligible effect; also recorded: no effect
same,LPS-stimulated IL-1β gene expression,"RAW 264.7 macrophages; pretreatment, concentration not given",no significant inhibition
"CCCCCCCCc1ccc([C@@H]2CC[C@](N)(CO)C2)cc1 [VPC01091.3, ((1R,3R)-1-amino-3-(4-octylphenyl)cyclopentyl)methanol]",Effect on whole-cell TRPM7 current (IM7),mouse TRPM7; 10 µM,inhibited
C=C1CC/C=C(\C)CC[C@@H]2C([C@H](C/C=C(\C)COC(C)=O)OC(C)=O)=CO[C@H](OC(C)=O)[C@@H]12 [Waixenicin A],Time to suppress ITRPM7,"TRPM7; 10 μM, ref Zierler et al., 2011",up to 200 s
same,IC50,"TRPM7; Mg^2+-free conditions, ref Zierler et al., 2011",7000 nM
same,IC50,"TRPM7; recording conditions that limit the development of TRPM7 currents, ref Zierler et al., 2011",16 nM
"CCCCCCCCCCCCC/C=C/[C@@H](O)[C@@H](N)CO [sphingosine, D-erythro-sphingosine, reference compound]",Effect on S1PRs,S1P receptors,no effect
same,IC50,TRPM7; [2],590 nM
